According to patent US20250282734A1 (Bayer Aktiengesellschaft, priority 2021, published 2025):

Columns and labels:
[1] = Solubility of cholinate vs free acid and other salts, shake-flask method (Example 14); type: physicochemical
Method: (§1) Preparation of FaSSIF (Fasted State Simulated Intestinal Fluid) blank solution: 4.2 g NaOH, 44.7 g NaH2PO4*2 H2O, and 61.86 g NaCl were dissolved in approximately 9.5 L demineralized water. Then, the pH of this solution was adjusted to 6.50+/−0.05 using HCl or NaOH, respectively. In the last step, the final volume was adjusted to 10.0 L by the addition of demineralized water.
Preparation of the final FaSSIF solution: 4.48 g SIF (Simulated Intestinal Fluids) powder (provider: biorelevant.com, Product code: FFF01 (May 2022)) were dissolved in approximately 500 mL FaSSIF blank solution, then the final volume was adjusted to 2.0 L by the addition of FaSSIF blank solution. After 2 hours, the solution was considered to be ready to use and was used within 48 hours.
as §1, with “FeSSIF (Fed” for “FaSSIF (Fasted”, “40.4” for “4.2”, “118.74” for “44.7”, “NaCl,” for “NaH2PO4*2 H2O,”, “82.4 mL glacial acetic acid” for “61.86 g NaCl”, “5.00+/−0.05” for “6.50+/−0.05”
Preparation of the final FeSSIF solution: 22.4 g SIF powder (provider: biorelevant.com, Product code: FFF01 (May 2022)) were dissolved in approximately 500 mL FeSSIF blank solution, then the final volume was adjusted to 2.0 L by the addition of FeSSIF blank solution. The solution was considered to be ready to use immediately after manufacturing and was used within 48 hours.

[2] = Hygroscopy, dynamic vapour sorption (DVS) isotherms (Example 15); type: physicochemical
Method: Water sorption isotherms were determined using a DVS Resolution gravimetric sorption analyzer (London, UK), or a DVS Intrinsic instrument (Surface measurement Systems). The sample was dried for 1000 minutes at 0% relative humidity (R.H.). Afterwards the dry weight was recorded. […] The equilibrium criterion for each relative humidity set point was 0.002% per minute relative mass change as a function of time.

Structure (SMILES)	Change in mass [%], Desorption ([2]; 0% Relative humidity) [%]	Change in mass [%], Sorption ([2]; 0% Relative humidity) [%]	Change in mass [%], Desorption ([2]; 10% Relative humidity) [%]	Change in mass [%], Sorption ([2]; 10% Relative humidity) [%]	Change in mass [%], Desorption ([2]; 20% Relative humidity) [%]	Change in mass [%], Sorption ([2]; 20% Relative humidity) [%]	Change in mass [%], Desorption ([2]; 30% Relative humidity) [%]	Change in mass [%], Sorption ([2]; 30% Relative humidity) [%]	Change in mass [%], Desorption ([2]; 40% Relative humidity) [%]	Change in mass [%], Sorption ([2]; 40% Relative humidity) [%]	Change in mass [%], Desorption ([2]; 50% Relative humidity) [%]	Change in mass [%], Sorption ([2]; 50% Relative humidity) [%]	Change in mass [%], Desorption ([2]; 60% Relative humidity) [%]	Change in mass [%], Sorption ([2]; 60% Relative humidity) [%]	Change in mass [%], Desorption ([2]; 70% Relative humidity) [%]	Change in mass [%], Sorption ([2]; 70% Relative humidity) [%]	Change in mass [%], Desorption ([2]; 80% Relative humidity) [%]	Change in mass [%], Sorption ([2]; 80% Relative humidity) [%]	Change in mass [%], Desorption ([2]; 90% Relative humidity) [%]	Change in mass [%], Sorption ([2]; 90% Relative humidity) [%]	also measured
O=C([O-])c1cc(NC(=O)C2(c3ccc(C(F)(F)F)cc3F)CC2)ccc1-c1cnn(C2CCC2)c1.[K+] [Potassium salt, Potassium 2-(1-cyclobutyl-1H-pyrazol-4-yl)-5-[({1-[2-fluoro-4-(trifluoromethyl)phenyl]cyclopropyl}carbonyl)amino]benzoate]	67.05	1.84	36.40	3.33	21.86	4.12	15.18	5.53	11.85	8.59	9.24	11.39	6.66	14.10	4.31	17.79	2.92	24.21	1.40	37.54	solubility ([1]; Buffer pH 4.5, 25° C.): 5 mgfree acid/L; solubility ([1]; Buffer pH 7, 25° C.): 684 mgfree acid/L; solubility ([1]; Buffer pH 8, 25° C.): >11594 mgfree acid/L; solubility ([1]; FaSSIF (37° C.) (Fasted State Simulated Intestinal Fluid)): 781 mgfree acid/L; solubility ([1]; FeSSIF (37° C.) (Fed State Simulated Intestinal Fluid)): 24 mgfree acid/L; solubility ([1]; Water, 25° C.): 6425 mgfree acid/L; Change in mass [%], Desorption ([2]; 95% Relative humidity): 0.00%; Change in mass [%], Sorption ([2]; 95% Relative humidity): 67.05%; DVS Dm @ 30% R.H. (Sorption) ([2]; summarized results, 30% R.H.): 5.5%; DVS Dm @ 50% R.H. (Sorption) ([2]; summarized results, 50% R.H.): 11.4%; DVS Dm @ 80% R.H. (Sorption) ([2]; summarized results, 80% R.H.): 24.2%
N=C(N)NCCC[C@H](N)C(=O)O.O=C(O)c1cc(NC(=O)C2(c3ccc(C(F)(F)F)cc3F)CC2)ccc1-c1cnn(C2CCC2)c1 [Arginine Salt, Arginine salt of 2-(1-cyclobutyl-1H-pyrazol-4-yl)-5-[({1-[2-fluoro-4-(trifluoromethyl)phenyl]cyclopropyl}carbonyl)amino]benzoate]	31.74	0.00	20.17	1.39	12.15	2.13	10.78	2.98	10.09	4.25	9.59	5.72	9.10	7.20	6.12	9.40	4.54	13.25	2.87	20.10	Change in mass [%], Desorption ([2]; 95% Relative humidity): 1.60%; Change in mass [%], Sorption ([2]; 95% Relative humidity): 31.74%
